The text below walks through data of the NIST ThermoML archive (doi:10.1021/acs.jced.6b00361).

Series [1] in a line: Molar enthalpy of transition or fusion. The following applies: Crystal; DSC.
The conditions of series [2]: Crystal; DTA.

± gives the expanded uncertainty stated by the source.

For the compound `O=C(O)C=Cc1ccc(O)cc1` [3-(4-hydroxyphenyl)-2-propenoic acid], the “Molar enthalpy of transition or fusion” value in series [1] stood at 8.2 ± 0.239 kcal/mol. In addition, the Normal melting temperature in series [2] turned out to be 221.2 ± 0.5 °C.
